Where two headings read alike, the source gives them in different places.
Experiments:
Format in all cases: cell-based
[1] = test system: P. aeruginosa ATCC 15442; assay: Preservation stress test, example formulation 2 (roll-on deodorant formulation); details: 1% active substance
Method: (§1) Preservation stress tests (PSTs) were carried out in order to determine the preserving activity of the diols. In the preservation stress test, this is simulated through artificial loadings with microorganisms. These can either be inoculated as mixed population or individually in mixtures independent of one another. The inoculated product samples are incubated under defined conditions and, after defined times, samples are taken in order to determine the germ loading. In the case of adequate preservation, the number of microorganisms should, depending on the type, either decrease or remain constant in order to satisfy the requirements specified, e.g. in Ph. Eur. 6.0. To investigate the preserving effect of the diols, application-typical amounts of the diols were incorporated into example formulations. […] [table] These example formulations were used to prepare various mixtures which each comprised 1% active substance or comprised water instead of the active substance as placebo mixtures. These mixtures were in each case inoculated with the test germs such that a germ loading of 10^5-10^6 CFU/g was present in the test mixture. The bacteria were either used individually for the inoculation or as a mixed culture. To determine the starting germ count, immediately after inoculation, an aliquot was taken, diluted in dilution medium (phosphate buffer, 0.07 molar pH 7.4 (+/−0.2), with 1% Tween 80+0.3% soya lecithin), and the surviving germ count was determined in the dilution stages 10^−1 to 10^−3. The inoculated product samples then incubated for a total of 28 d at 20-25° C. After 2 d, 7 d, 14 d and after 28 d, aliquots were taken and diluted in dilution medium (phosphate buffer, 0.07 molar pH 7.4 (+/−0.2), with 1% Tween 80+0.3% soya lecithin). The surviving germ counts were determined in the dilution stages 10^−1 to 10^−4. The reference point taken for determining the reduction in germ count was the respective initial value of the sample. The results were given as logarithmic reductions.

[2] = test system: A. niger ATCC 16404; assay: as above; details: 1% active substance
Method: as §1

[3] = test system: E. coli ATCC 10536; assay: as above; details: 1% active substance
Method: as §1

[4] = test system: C. albicans ATCC 10231; assay: as above; details: 1% active substance
Method: as §1

[5] = test system: S. aureus ATCC 6538; assay: as above; details: 1% active substance
Method: as §1

[6] = test system: series of tested microorganisms (bacteria and fungi); assay: Microstatic activity, highest MIC from the series of tested microorganisms; details: highest measured MIC from the series of tested microorganisms
Method: The following microorganisms were used;to test the biocidal effect against various bacteria and fungi: In each case, the MIC (Minimum Inhibitory Concentration) value was determined. This value indicates the minimum concentration above which the growth of the microorganisms was visibly hindered compared to the corresponding sample without addition of the diol. The MIC value stated is a range between the next higher concentration of a positive test and the same and/or lower concentration of a first negative test. In the last line of each of the tables below, a “maximum” value is listed. This value indicates the highest measured MIC value in each case from the series of tested microorganisms.

[7] = test system: A. niger ATCC 16404; assay: Preservation stress test, example formulation 1 (standard emulsion O/W); details: 1% active substance
Method: as §1

[8] = test system: C. albicans ATCC 10231; assay: as above; details: 1% active substance
Method: as §1

[9] = test system: S. aureus NCIMB 9578; assay: Microstatic activity, MIC in tryptone soy broth; details: Staphylococcus aureus, NCIMB9578, 30° C., 48 hours
Method: (§2) For this, in each case a 40 percent strength by weight solution of a diol in propylene glycol was prepared at 60° C. This solution was diluted with a double-strength soy solution (double-strength tryptone soy broth) as nutrient medium in the volume ratio 1:1. Further dilution with soy solution produced solutions with the following concentrations: 400 000 ppm (40%), 200 000 ppm (20%), 100 000 ppm (10%), 50 000 ppm (5%), 25 000 ppm (2.5%), 12 500 ppm (1.25%), 6250 ppm (0.625%), 3125 ppm (0.3125%). Pure soy solution was used as negative control. The positive control used was a solution of 5 ml of soy solution which has been treated with 0.1 ml of the respective microorganism. The test solutions consisted of 5 ml of the above-described soy solutions of the diols in the particular concentration which have been mixed with 0.1 ml of the respective microorganism. The samples and controls were incubated in the case of the bacteria at 30° C. for 48 hours, and in the case of fungi over 5 days at 25° C. In each case, the MIC (Minimum Inhibitory Concentration) value was determined. This value indicates the minimum concentration above which the growth of the microorganisms was visibly hindered compared to the corresponding sample without addition of the diol. […] For example, this was evident from the occurrence of clouding or visible growth of the microorganism. […] The MIC value stated is a range between the next higher concentration of a positive test and the same and/or lower concentration of a first negative test.

[10] = test system: C. albicans NCPF 3179; assay: Microstatic activity, MIC in tryptone soy broth; details: 25° C., 5 days; for MIC: Candida albicans, NCPF3179, 120 h
Method: as §2

[11] = test system: P. aeruginosa NCIMB 10421; assay: Microstatic activity, MIC in tryptone soy broth; details: Pseudomonas aeruginosa, NCIMB10421, 30° C., 48 hours
Method: as §2

[12] = test system: E. coli NCIMB 8545; assay: Microstatic activity, MIC in tryptone soy broth; details: Escherichia coli, NCIMB8545, 30° C., 48 hours
Method: as §2

[13] = lower limit, read-out: Maximum MIC value (ppm of diol), from
[14] = lower limit of MIC range, read-out: MIC value (ppm of diol), from
[15] = upper limit of MIC range, read-out: MIC value (ppm of diol), to

Row | MIC [6, 13] [mg/mL] | Structure (SMILES) | Microbicidal activity given as logarithmic reduction in germ count ([1]; 48 h) | Microbicidal activity given as logarithmic reduction in germ count ([1]; 7 d) | Microbicidal activity given as logarithmic reduction in germ count ([1]; 14 d) [log. Red.] | Microbicidal activity given as logarithmic reduction in germ count ([1]; 28 d) [log. Red.] | Microbicidal activity given as logarithmic reduction in germ count ([2]; 48 h) [log. Red.] | Microbicidal activity given as logarithmic reduction in germ count ([2]; 7 d) [log. Red.] | Microbicidal activity given as logarithmic reduction in germ count ([2]; 14 d) [log. Red.] | Microbicidal activity given as logarithmic reduction in germ count ([3]; 48 h) | Microbicidal activity given as logarithmic reduction in germ count ([3]; 7 d) | Microbicidal activity given as logarithmic reduction in germ count ([3]; 14 d) [log. Red.] | Microbicidal activity given as logarithmic reduction in germ count ([3]; 28 d) [log. Red.] | Microbicidal activity given as logarithmic reduction in germ count ([4]; 48 h) [log. Red.] | Microbicidal activity given as logarithmic reduction in germ count ([4]; 7 d) [log. Red.] | Microbicidal activity given as logarithmic reduction in germ count ([4]; 14 d) [log. Red.] | Microbicidal activity given as logarithmic reduction in germ count ([5]; 48 h) | Microbicidal activity given as logarithmic reduction in germ count ([5]; 7 d) [log. Red.] | Microbicidal activity given as logarithmic reduction in germ count ([5]; 14 d) [log. Red.] | Microbicidal activity given as logarithmic reduction in germ count ([5]; 28 d) [log. Red.] | Microbicidal activity given as logarithmic reduction in germ count ([7]; 48 h) [log. Red.] | further results
1 | > 25 | CC(C)C(C)(CO)CO [IMPD, 2-isopropyl-2-methylpropane-1,3-diol] | 1 log. Red. | ≧3 log. Red. | 5 | 5 | 0 | 0 | 0 | 3 log. Red. | 5 log. Red. | 5 | 5 | 0 | 0 | 0 | ≧3 log. Red. | 5 | 5 | 5 | 1 | MIC ([6]; upper limit, read-out: Maximum MIC value (ppm of diol), to): ≤ 50 mg/mL; Microbicidal activity given as logarithmic reduction in germ count ([7]; 7 d): 1 log. Red.; Microbicidal activity given as logarithmic reduction in germ count ([7]; 14 d): 2 log. Red.; Microbicidal activity given as logarithmic reduction in germ count ([7]; 28 d): 3 log. Red.; Microbicidal activity given as logarithmic reduction in germ count ([8]; 48 h): 1 log. Red.; Microbicidal activity given as logarithmic reduction in germ count ([8]; 7 d): ≧3 log. Red.; Microbicidal activity given as logarithmic reduction in germ count ([8]; 14 d): 5 log. Red.; Microbicidal activity given as logarithmic reduction in germ count ([8]; 28 d): 5 log. Red.; MIC [9, 14]: > 12.5 mg/mL; MIC [9, 15]: ≤ 25 mg/mL; MIC [10, 14]: > 25 mg/mL; MIC [10, 15]: ≤ 50 mg/mL; MIC [11, 14]: > 12.5 mg/mL; MIC [11, 15]: ≤ 25 mg/mL; MIC [12, 14]: > 6.25 mg/mL; MIC [12, 15]: ≤ 12.5 mg/mL
2 | > 100 | CCCCCCCCC(C)(CO)CO [OMPD, 2-octyl-2-methylpropane-1,3-diol] | ≧3 log. Red. | 5 log. Red. | 5 | 5 | 0 | 0 | 0 | 0 log. Red. | ≧3 log. Red. | 5 | 5 | 0 | 0 | 0 | ≧3 log. Red. | 5 | 5 | 5 | 0 | Microbicidal activity given as logarithmic reduction in germ count ([7]; 7 d): 0 log. Red.; Microbicidal activity given as logarithmic reduction in germ count ([7]; 14 d): 1 log. Red.; Microbicidal activity given as logarithmic reduction in germ count ([7]; 28 d): 1 log. Red.; Microbicidal activity given as logarithmic reduction in germ count ([8]; 48 h): ≧3 log. Red.; Microbicidal activity given as logarithmic reduction in germ count ([8]; 7 d): 5 log. Red.; Microbicidal activity given as logarithmic reduction in germ count ([8]; 14 d): 5 log. Red.; Microbicidal activity given as logarithmic reduction in germ count ([8]; 28 d): 5 log. Red.; MIC [9, 14]: > 25 mg/mL; MIC [9, 15]: ≤ 50 mg/mL; MIC value (ppm of diol), from ([10]; lower limit of MIC range): >0 ppm; MIC [10, 15]: ≤ 3.12 mg/mL; MIC [11, 14]: > 100 mg/mL; MIC [12, 14]: > 50 mg/mL; MIC [12, 15]: ≤ 100 mg/mL
3 | > 100 | CCCCCC(CO)(CO)CCC [PPPD, 2-pentyl-2-propylpropane-1,3-diol] | 5 log. Red. | 5 log. Red. | 5 | 5 | 0 | 0 | 0 | ≧3 log. Red. | 5 log. Red. | 5 | 5 | 0 | 0 | 0 | 5 log. Red. | 5 | 5 | 5 | 0 | Microbicidal activity given as logarithmic reduction in germ count ([7]; 7 d): 1 log. Red.; Microbicidal activity given as logarithmic reduction in germ count ([7]; 14 d): 1 log. Red.; Microbicidal activity given as logarithmic reduction in germ count ([7]; 28 d): 1 log. Red.; Microbicidal activity given as logarithmic reduction in germ count ([8]; 48 h): ≧3 log. Red.; Microbicidal activity given as logarithmic reduction in germ count ([8]; 7 d): 5 log. Red.; Microbicidal activity given as logarithmic reduction in germ count ([8]; 14 d): 5 log. Red.; Microbicidal activity given as logarithmic reduction in germ count ([8]; 28 d): 5 log. Red.; MIC [9, 14]: > 50 mg/mL; MIC [9, 15]: ≤ 100 mg/mL; MIC [10, 14]: > 6.25 mg/mL; MIC [10, 15]: ≤ 12.5 mg/mL; MIC [11, 14]: > 100 mg/mL; MIC [12, 14]: > 50 mg/mL; MIC [12, 15]: ≤ 100 mg/mL

Reference: patent US20120152149A1, “USE OF 1,3-DIOLS AS BIOCIDES” (BASF SE, priority 2009, published 2012)
